Test results taken from PubChem BioAssay AID330 (DTP/NCI, 2004).
“And” between values parts separate entries of the source, which are not always exact repeats. Identical values can stand only once. Toxic doses and inconclusive results are not listed. Rule for the calls: active = survival T/C of 150% or more; inactive = T/C below 125% in these data.

Tested on: P388 leukemia ip, CD2F1 mice, survival T/C
Test: NCI In Vivo Anticancer Drug Screen. Data for tumor model P388 Leukemia (intraperitoneal) in CD2F1 (CDF1) mice
Settings: endpoint: median survival time, higher = longer survival
Outline: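 Mice carrying the transplanted tumor received test compound or vehicle. Survival was recorded in each group, and the value is the treated-group measurement divided by that of the vehicle-treated control group.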

[1] = dose: 25.0 mg/kg/injection, schedule: Q01DX005 (ip), vehicle: Klucel (hydroxypropylcellulose) (HPC)
[2] = dose: 50.0 mg/kg/injection, schedule: Q01DX005 (ip), vehicle: Klucel (hydroxypropylcellulose) (HPC)
[3] = dose: 100.0 mg/kg/injection, schedule: Q01DX005 (ip), vehicle: Klucel (hydroxypropylcellulose) (HPC)
[4] = dose: 50.0 mg/kg/injection, schedule: Q01DX005 (ip), vehicle: saline with Tween-80
[5] = dose: 100.0 mg/kg/injection, schedule: Q01DX005 (ip), vehicle: saline with Tween-80
[6] = dose: 200.0 mg/kg/injection, schedule: Q01DX005 (ip), vehicle: saline with Tween-80
[7] = dose: 50.0 mg/kg/injection, schedule: Q01DX009 (ip), vehicle: saline
[8] = dose: 100.0 mg/kg/injection, schedule: Q01DX009 (ip), vehicle: saline
[9] = dose: 50.0 mg/kg/injection, schedule: Q01DX009 (ip), vehicle: Klucel (hydroxypropylcellulose) (HPC)
[10] = dose: 100.0 mg/kg/injection, schedule: Q01DX009 (ip), vehicle: Klucel (hydroxypropylcellulose) (HPC)
[11] = dose: 200.0 mg/kg/injection, schedule: Q01DX009 (ip), vehicle: Klucel (hydroxypropylcellulose) (HPC)
[12] = dose: 100.0 mg/kg/injection, schedule: Q01DX001 (ip), vehicle: Klucel (hydroxypropylcellulose) (HPC)
[13] = dose: 60.0 mg/kg/injection, schedule: Q01DX005 (ip), vehicle: Klucel (hydroxypropylcellulose) (HPC)
[14] = dose: 120.0 mg/kg/injection, schedule: Q01DX005 (ip), vehicle: Klucel (hydroxypropylcellulose) (HPC)
[15] = dose: 25.0 mg/kg/injection, schedule: Q01DX001 (ip), vehicle: Klucel (hydroxypropylcellulose) (HPC)
[16] = dose: 50.0 mg/kg/injection, schedule: Q01DX001 (ip), vehicle: Klucel (hydroxypropylcellulose) (HPC)
[17] = dose: 100.0 mg/kg/injection, schedule: Q04DX003 (ip), vehicle: saline
[18] = dose: 200.0 mg/kg/injection, schedule: Q04DX003 (ip), vehicle: saline
[19] = dose: 400.0 mg/kg/injection, schedule: Q04DX003 (ip), vehicle: saline
[20] = dose: 200.0 mg/kg/injection, schedule: Q01DX009 (ip), vehicle: saline
[21] = dose: 50.0 mg/kg/injection, schedule: Q01DX009 (ip), vehicle: saline with Tween-80
[22] = dose: 200.0 mg/kg/injection, schedule: Q01DX005 (ip), vehicle: Klucel (hydroxypropylcellulose) (HPC)

Measured: T/C

CC(C)Cn1c(C(C)C)nc([N+](=O)[O-])c1Sc1ncn[nH]1
inactive: [1] 108 % of control | [2] 108 % of control and 118 % of control | [3] 123 % of control

CC(=O)c1ccc2c(c1)c1c(C)c3c[n+](C)ccc3c(C)c1n2C
inactive: dose: 200.0 mg/kg/injection, schedule: Q01DX001 (ip), vehicle: saline with Tween-80 115 % of control

CC1CCC2(C)OC1OC2=O (configuration not stated)
inactive: [4] 97 % of control | [5] 91 % of control | [6] 87 % of control

CC1=CCC(CC2CO2)C1(C)C (configuration not stated)
inactive: [7] 101 % of control | [8] 108 % of control

CNS(=O)(=O)c1cc([N+](=O)[O-])c(N2CCCCC2)c([N+](=O)[O-])c1
inactive: [9] 100 % of control | [10] 100 % of control | [11] 99 % of control

S[C@@H]1CCCN1
inactive: dose: 50.0 mg/kg/injection, schedule: Q01DX005 (ip), vehicle: saline 97 % of control | dose: 100.0 mg/kg/injection, schedule: Q01DX005 (ip), vehicle: saline 102 % of control | dose: 200.0 mg/kg/injection, schedule: Q01DX005 (ip), vehicle: saline 99 % of control

Cc1c(N=Nc2ccccc2[N+](=O)[O-])c(-c2ccccc2)nn1C(N)=S
inactive: [12] 114 % of control | dose: 200.0 mg/kg/injection, schedule: Q01DX001 (ip), vehicle: Klucel (hydroxypropylcellulose) (HPC) 114 % of control | dose: 400.0 mg/kg/injection, schedule: Q01DX001 (ip), vehicle: Klucel (hydroxypropylcellulose) (HPC) 108 % of control

O=C(O)CSC(=O)NCCCCCCNC(=O)Nc1ccccc1
inactive: [4] 104 % of control | [5] 105 % of control | [6] 112 % of control

CCOC(=O)n1oc2c(Br)cc(Br)cc2c1=O
inactive: dose: 50.0 mg/kg/injection, schedule: Q04DX002 (ip), vehicle: Klucel (hydroxypropylcellulose) (HPC) 105 % of control | dose: 100.0 mg/kg/injection, schedule: Q04DX002 (ip), vehicle: Klucel (hydroxypropylcellulose) (HPC) 99 % of control | dose: 200.0 mg/kg/injection, schedule: Q04DX002 (ip), vehicle: Klucel (hydroxypropylcellulose) (HPC) 101 % of control

O=C1OC(OC/C(Br)=C(\Br)COC2OC(=O)C(Cl)=C2Cl)C(Cl)=C1Cl (configuration not stated)
inactive: dose: 15.0 mg/kg/injection, schedule: Q01DX005 (ip), vehicle: saline with Tween-80 103 % of control | dose: 30.0 mg/kg/injection, schedule: Q01DX005 (ip), vehicle: saline with Tween-80 103 % of control | dose: 60.0 mg/kg/injection, schedule: Q01DX005 (ip), vehicle: saline with Tween-80 112 % of control

COc1cccc(C2c3cc4c(cc3OC(C)(N3CCCC3)C2C)OCO4)c1OC (configuration not stated)
inactive: [13] 99 % of control | [14] 88 % of control

CCOC(=O)C1=NN2c3ccccc3OCC2C1 (configuration not stated)
inactive: dose: 50.0 mg/kg/injection, schedule: Q04DX003 (ip), vehicle: suspension in saline 99 % of control | dose: 100.0 mg/kg/injection, schedule: Q04DX003 (ip), vehicle: suspension in saline 101 % of control | dose: 200.0 mg/kg/injection, schedule: Q04DX003 (ip), vehicle: suspension in saline 100 % of control

COC(=O)C/C(C(=O)OC)=C1\CCC2=C1N1CCCC1C2(CC(=O)OC)C(=O)OC (configuration not stated)
inactive: dose: 12.5 mg/kg/injection, schedule: Q01DX001 (ip), vehicle: Klucel (hydroxypropylcellulose) (HPC) 100 % of control | [15] 99 % of control | [16] 99 % of control

Cc1ccc(NCN2C(=O)c3ccccc3C2=O)c(C)n1
inactive: [13] 92 % of control | [14] 89 % of control

Cn1c2ccccc2c(=O)c2cc(NC(=O)CCCCCCCC(=O)Nc3ccc4c(c3)c(=O)c3ccccc3n4C)ccc21
inactive: [4] 92 % of control | [5] 97 % of control | [6] 101 % of control

c1cc2n3c1CCc1ccc(n1CC3)CC2
inactive: dose: 8.0 mg/kg/injection, schedule: Q01DX009 (ip), vehicle: saline with Tween-80 100 % of control | dose: 16.0 mg/kg/injection, schedule: Q01DX009 (ip), vehicle: saline with Tween-80 100 % of control | dose: 32.0 mg/kg/injection, schedule: Q01DX009 (ip), vehicle: saline with Tween-80 100 % of control

O=c1cccccc1[O][Sn]([Cl])([Cl])[O]c1cccccc1=O
inactive: [15] 97 % of control | [16] 99 % of control | [12] 99 % of control

C1=NCCN=Cc2ccccc2NCCNc2ccccc21
inactive: [17] 93 % of control | [18] 91 % of control | [19] 103 % of control

CC(C)CCNCC(N)C(=O)O (configuration not stated)
inactive: dose: 100.0 mg/kg/injection, schedule: Q04DX003 (ip), vehicle: Klucel (hydroxypropylcellulose) (HPC) 100 % of control | dose: 200.0 mg/kg/injection, schedule: Q04DX003 (ip), vehicle: Klucel (hydroxypropylcellulose) (HPC) 98 % of control | dose: 400.0 mg/kg/injection, schedule: Q04DX003 (ip), vehicle: Klucel (hydroxypropylcellulose) (HPC) 99 % of control

COC(=O)c1cc([N+](=O)[O-])ccc1N=NNc1ccccc1
inactive: dose: 12.5 mg/kg/injection, schedule: Q01DX009 (ip), vehicle: saline 106 % of control | dose: 25.0 mg/kg/injection, schedule: Q01DX009 (ip), vehicle: saline 103 % of control and 95 % of control | [7] 100 % of control and 105 % of control and 95 % of control | [20] 87 % of control

CCSC(=S)N=Nc1c(O)n(C)c2ccccc12
inactive: [7] 93 % of control | [8] 94 % of control

O=C(Nc1ccccc1)Oc1cccc(/C=N/Sc2ccccc2)c1
inactive: [21] 98 % of control

CCc1c2c(cc3c1[nH]c1ccccc13)C(=O)NC2=O
inactive: [1] 99 % of control | [2] 90 % of control and 92 % of control | [3] 97 % of control | [22] 94 % of control

CC12CC3CC(C1)CC(Br)(C3)C2
inactive: [9] 103 % of control and 111 % of control | [10] 100 % of control | [11] 100 % of control

N#CCNC=O
inactive: dose: 60.0 mg/kg/injection, schedule: Q01DX005 (ip), vehicle: saline 98 % of control | dose: 120.0 mg/kg/injection, schedule: Q01DX005 (ip), vehicle: saline 103 % of control | dose: 240.0 mg/kg/injection, schedule: Q01DX005 (ip), vehicle: saline 100 % of control

NC1=C(O)C(=O)C(c2c(Cl)cccc2Cl)O1 (configuration not stated)
inactive: [13] 105 % of control | [14] 102 % of control | dose: 240.0 mg/kg/injection, schedule: Q01DX005 (ip), vehicle: Klucel (hydroxypropylcellulose) (HPC) 105 % of control

COc1cc(C(=O)N/N=C/C(=O)O)cc(OC)c1OC
inactive: [2] 101 % of control | [3] 104 % of control | [22] 101 % of control

COc1cc2ccnc(Cc3ccc4c(c3)OCO4)c2cc1OC
inactive: [7] 115 % of control | [8] 95 % of control | [17] 100 % of control | [20] 100 % of control | [18] 100 % of control | [19] 95 % of control

CCCCCCCCCCCC(=O)OCCN1CCN(CCCN2c3ccccc3Sc3ccc(C(F)(F)F)cc32)CC1
inactive: dose: 0.78 mg/kg/injection, schedule: Q01DX009 (ip), vehicle: saline with Tween-80 108 % of control | dose: 1.56 mg/kg/injection, schedule: Q01DX009 (ip), vehicle: saline with Tween-80 104 % of control | dose: 3.12 mg/kg/injection, schedule: Q01DX009 (ip), vehicle: saline with Tween-80 105 % of control and 93 % of control | dose: 6.25 mg/kg/injection, schedule: Q01DX009 (ip), vehicle: saline with Tween-80 107 % of control | dose: 12.5 mg/kg/injection, schedule: Q01DX009 (ip), vehicle: saline with Tween-80 101 % of control and 107 % of control | dose: 25.0 mg/kg/injection, schedule: Q01DX009 (ip), vehicle: saline with Tween-80 106 % of control | [21] 114 % of control | dose: 100.0 mg/kg/injection, schedule: Q01DX009 (ip), vehicle: saline with Tween-80 97 % of control

O=C(NCCCl)Nc1ccnc(=O)[nH]1
inactive: [4] 107 % of control | [5] 107 % of control | [6] 111 % of control
